Test results published in PubChem BioAssay AID2060905 (Molecular Pharmacology Branch, DTP, NCI, 2025).

Test system: 282377-053-R-J1-PDC complex spheroid viability
Test: Anticancer human tumor 282377-053-R-J1-PDC patient-derived colon adenocarcinoma cell line growth inhibition [RAS]
Conditions: for IC50: curve of first compound; for viability, T/C: stronger effect = lower value; active means viability on the fitted dose curve at most 10% of control; inactive means the rest
How it was run: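 Multi-cell-type spheroids: tumor cells plus HUVEC endothelial cells and mesenchymal stem cells. RAS-pathway inhibitors were combined with targeted agents, each dosed in half-log steps down from clinical Cmax, or from 10 microM when Cmax was unknown.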

[1] = second compound 0.000949 µM, first compound 0.0316 µM
[2] = second compound 0.000949 µM, first compound 0.1 µM
[3] = second compound 0.003 µM, first compound 0.0316 µM
[4] = second compound 0.003 µM, first compound 0.1 µM
[5] = second compound 0.00949 µM, first compound 0.0316 µM
[6] = second compound 0.00949 µM, first compound 0.1 µM
[7] = second compound 0.03 µM, first compound 0.0316 µM
[8] = second compound 0.03 µM, first compound 0.1 µM
[9] = second compound 0.0949 µM, first compound 0.0316 µM
[10] = second compound 0.0949 µM, first compound 0.1 µM
[11] = second compound 0.3 µM, first compound 0.0316 µM
[12] = second compound 0.3 µM, first compound 0.1 µM
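Further: spheroids exposed to agents for seven days before readout.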
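Wherever viability, T/C is given: luminescence viability as percent of DMSO vehicle control wells.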

CC(C)NCC(C(=O)N1CCN(c2ncnc3c2C(C)CC3O)CC1)c1ccc(Cl)cc1 (centres undefined) + CCn1c(-c2cccnc2C(C)OC)c2c3cc(ccc31)N1CCOC(CC(NC(=O)C(C(C)C)N(C)C(=O)C3(F)CCN(C(=O)C#CC(C)(C)N(C)C)CC3)C(=O)N3CCCC(N3)C(=O)OCC(C)(C)C2)C1
inactive: viability, T/C [1] 96.4% | viability, T/C [2] 99.7% | viability, T/C (second compound 0.000949 µM, first compound 0.316 µM) 109% | viability, T/C (second compound 0.000949 µM, first compound 1 µM) 89.7% | viability, T/C (second compound 0.000949 µM, first compound 3.16 µM) 78.3% | viability, T/C (second compound 0.000949 µM, first compound 10 µM) 70.6% | viability, T/C [3] 104% | viability, T/C [4] 96.5% | viability, T/C (second compound 0.003 µM, first compound 0.316 µM) 91.9% | viability, T/C (second compound 0.003 µM, first compound 1 µM) 82.2% | viability, T/C (second compound 0.003 µM, first compound 3.16 µM) 79.5% | viability, T/C (second compound 0.003 µM, first compound 10 µM) 78.2% | viability, T/C [5] 114% | viability, T/C [6] 93% | viability, T/C (second compound 0.00949 µM, first compound 0.316 µM) 90% | viability, T/C (second compound 0.00949 µM, first compound 1 µM) 88.8% | viability, T/C (second compound 0.00949 µM, first compound 3.16 µM) 82.5% | viability, T/C (second compound 0.00949 µM, first compound 10 µM) 74.5% | viability, T/C [7] 104% | viability, T/C [8] 111% | viability, T/C (second compound 0.03 µM, first compound 0.316 µM) 81.3% | viability, T/C (second compound 0.03 µM, first compound 1 µM) 103% | viability, T/C (second compound 0.03 µM, first compound 3.16 µM) 69.8% | viability, T/C (second compound 0.03 µM, first compound 10 µM) 88.1% | viability, T/C [9] 88.4% | viability, T/C [10] 94.4% | viability, T/C (second compound 0.0949 µM, first compound 0.316 µM) 127% | viability, T/C (second compound 0.0949 µM, first compound 1 µM) 90% | viability, T/C (second compound 0.0949 µM, first compound 3.16 µM) 72.5% | viability, T/C (second compound 0.0949 µM, first compound 10 µM) 67.8% | viability, T/C [11] 105% | viability, T/C [12] 112% | viability, T/C (second compound 0.3 µM, first compound 0.316 µM) 94.8% | viability, T/C (second compound 0.3 µM, first compound 1 µM) 92.7% | viability, T/C (second compound 0.3 µM, first compound 3.16 µM) 77.3% | viability, T/C (second compound 0.3 µM, first compound 10 µM) 80.7%
> 10 µM: IC50 (second compound 0.000949 µM) | IC50 (second compound 0.003 µM) | IC50 (second compound 0.00949 µM) | IC50 (second compound 0.03 µM) | IC50 (second compound 0.0949 µM) | IC50 (second compound 0.3 µM)

CC(C)n1nc(-c2ccc3oc(N)nc3c2)c2c(N)ncnc21 + CCn1c(-c2cccnc2C(C)OC)c2c3cc(ccc31)N1CCOC(CC(NC(=O)C(C(C)C)N(C)C(=O)C3(F)CCN(C(=O)C#CC(C)(C)N(C)C)CC3)C(=O)N3CCCC(N3)C(=O)OCC(C)(C)C2)C1
> 0.1 µM: IC50 (second compound 0.000949 µM) | IC50 (second compound 0.003 µM) | IC50 (second compound 0.00949 µM) | IC50 (second compound 0.03 µM) | IC50 (second compound 0.0949 µM) | IC50 (second compound 0.3 µM)
inactive: viability, T/C (second compound 0.000949 µM, first compound 0.000316 µM) 91.5% | viability, T/C (second compound 0.000949 µM, first compound 0.001 µM) 112% | viability, T/C (second compound 0.000949 µM, first compound 0.00316 µM) 87.1% | viability, T/C (second compound 0.000949 µM, first compound 0.01 µM) 76.9% | viability, T/C [1] 65.7% | viability, T/C [2] 59.7% | viability, T/C (second compound 0.003 µM, first compound 0.000316 µM) 84.5% | viability, T/C (second compound 0.003 µM, first compound 0.001 µM) 103% | viability, T/C (second compound 0.003 µM, first compound 0.00316 µM) 73.8% | viability, T/C (second compound 0.003 µM, first compound 0.01 µM) 73.6% | viability, T/C [3] 75.3% | viability, T/C [4] 70.1% | viability, T/C (second compound 0.00949 µM, first compound 0.000316 µM) 119% | viability, T/C (second compound 0.00949 µM, first compound 0.001 µM) 108% | viability, T/C (second compound 0.00949 µM, first compound 0.00316 µM) 98.5% | viability, T/C (second compound 0.00949 µM, first compound 0.01 µM) 80% | viability, T/C [5] 67.8% | viability, T/C [6] 59.1% | viability, T/C (second compound 0.03 µM, first compound 0.000316 µM) 110% | viability, T/C (second compound 0.03 µM, first compound 0.001 µM) 87.2% | viability, T/C (second compound 0.03 µM, first compound 0.00316 µM) 77.3% | viability, T/C (second compound 0.03 µM, first compound 0.01 µM) 86% | viability, T/C [7] 66.9% | viability, T/C [8] 50.2% | viability, T/C (second compound 0.0949 µM, first compound 0.000316 µM) 100% | viability, T/C (second compound 0.0949 µM, first compound 0.001 µM) 117% | viability, T/C (second compound 0.0949 µM, first compound 0.00316 µM) 86.9% | viability, T/C (second compound 0.0949 µM, first compound 0.01 µM) 75% | viability, T/C [9] 68.1% | viability, T/C [10] 48.5% | viability, T/C (second compound 0.3 µM, first compound 0.000316 µM) 107% | viability, T/C (second compound 0.3 µM, first compound 0.001 µM) 89.2% | viability, T/C (second compound 0.3 µM, first compound 0.00316 µM) 96.3% | viability, T/C (second compound 0.3 µM, first compound 0.01 µM) 73.2% | viability, T/C [11] 71.6% | viability, T/C [12] 57.3%
